Measurements reported in ChEMBL document CHEMBL5291721, “A preclinical secondary pharmacology resource illuminates target-adverse drug reaction associations of marketed drugs” (Nat Commun, 2023).
Values belong to the compound of their own block, whether it stands above or below them.

Key:
[1] = target: T1, Type-1 angiotensin II receptor (Homo sapiens, UniProt P30556)
T1 sequence (P30556 whole entry): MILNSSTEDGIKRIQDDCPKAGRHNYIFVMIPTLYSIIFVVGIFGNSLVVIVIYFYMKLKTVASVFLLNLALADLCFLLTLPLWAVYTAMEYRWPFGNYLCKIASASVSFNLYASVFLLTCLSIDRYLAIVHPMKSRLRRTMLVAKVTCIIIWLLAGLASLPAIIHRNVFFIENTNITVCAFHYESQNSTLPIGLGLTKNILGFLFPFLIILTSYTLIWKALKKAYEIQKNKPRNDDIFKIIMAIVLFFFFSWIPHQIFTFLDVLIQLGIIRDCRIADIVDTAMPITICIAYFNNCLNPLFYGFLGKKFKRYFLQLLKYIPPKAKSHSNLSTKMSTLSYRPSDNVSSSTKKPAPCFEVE

[2] = target: Type-2 angiotensin II receptor (Homo sapiens, UniProt P50052); format: functional
Chain of Type-2 angiotensin II receptor (P50052 whole entry): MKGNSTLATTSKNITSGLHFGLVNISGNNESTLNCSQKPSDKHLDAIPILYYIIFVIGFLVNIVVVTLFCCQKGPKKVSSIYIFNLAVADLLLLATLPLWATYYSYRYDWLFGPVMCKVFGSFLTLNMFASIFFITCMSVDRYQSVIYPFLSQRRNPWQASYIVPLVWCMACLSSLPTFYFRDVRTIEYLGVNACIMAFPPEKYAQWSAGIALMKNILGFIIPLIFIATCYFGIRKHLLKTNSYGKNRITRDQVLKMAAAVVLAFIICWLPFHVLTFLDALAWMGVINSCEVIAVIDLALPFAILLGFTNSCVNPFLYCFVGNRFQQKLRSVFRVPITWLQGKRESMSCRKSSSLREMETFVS

Bile acid receptor [3] = target: T2, Bile acid receptor (Homo sapiens, UniProt Q96RI1); format: functional
T2 sequence (Q96RI1 whole entry): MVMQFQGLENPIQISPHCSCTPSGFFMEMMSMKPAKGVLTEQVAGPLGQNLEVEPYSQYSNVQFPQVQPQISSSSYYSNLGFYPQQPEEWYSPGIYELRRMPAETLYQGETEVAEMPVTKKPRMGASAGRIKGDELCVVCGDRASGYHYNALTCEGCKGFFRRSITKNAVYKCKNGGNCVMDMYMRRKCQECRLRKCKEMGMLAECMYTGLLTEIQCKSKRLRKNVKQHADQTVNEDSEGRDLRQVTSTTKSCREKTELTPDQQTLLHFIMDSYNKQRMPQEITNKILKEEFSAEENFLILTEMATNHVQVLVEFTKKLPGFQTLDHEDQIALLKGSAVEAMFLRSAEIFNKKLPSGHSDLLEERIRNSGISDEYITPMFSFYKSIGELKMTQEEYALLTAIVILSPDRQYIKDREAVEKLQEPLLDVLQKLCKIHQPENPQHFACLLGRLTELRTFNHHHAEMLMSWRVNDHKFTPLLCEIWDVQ

Bile acid receptor [4] = target: T2, Bile acid receptor; format: functional; remark: listed apart in the source
Bile acid receptor [5] = target: T2, Bile acid receptor; format: functional; remark: listed apart in the source
[6] = target: T3, Retinoic acid receptor alpha (Homo sapiens, UniProt P10276); format: functional, cell-based
T3 sequence (P10276 whole entry): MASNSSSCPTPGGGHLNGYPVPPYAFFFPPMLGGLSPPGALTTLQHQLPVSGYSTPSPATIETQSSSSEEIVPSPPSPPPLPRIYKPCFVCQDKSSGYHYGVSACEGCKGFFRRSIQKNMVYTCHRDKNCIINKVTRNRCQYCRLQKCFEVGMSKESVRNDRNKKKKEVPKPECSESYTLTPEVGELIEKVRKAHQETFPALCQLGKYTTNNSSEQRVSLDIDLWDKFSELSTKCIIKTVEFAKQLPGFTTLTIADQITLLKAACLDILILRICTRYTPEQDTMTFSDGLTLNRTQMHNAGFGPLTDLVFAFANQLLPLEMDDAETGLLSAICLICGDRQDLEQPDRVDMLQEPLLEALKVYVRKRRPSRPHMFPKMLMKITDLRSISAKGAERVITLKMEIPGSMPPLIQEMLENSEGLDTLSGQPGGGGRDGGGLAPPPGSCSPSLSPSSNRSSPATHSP

[7] = target: T3, Retinoic acid receptor alpha; format: functional, cell-based; remark: listed apart in the source
[8] = target: T4, Retinoic acid receptor beta (Homo sapiens, UniProt P10826); format: functional, cell-based
T4 sequence (P10826 whole entry): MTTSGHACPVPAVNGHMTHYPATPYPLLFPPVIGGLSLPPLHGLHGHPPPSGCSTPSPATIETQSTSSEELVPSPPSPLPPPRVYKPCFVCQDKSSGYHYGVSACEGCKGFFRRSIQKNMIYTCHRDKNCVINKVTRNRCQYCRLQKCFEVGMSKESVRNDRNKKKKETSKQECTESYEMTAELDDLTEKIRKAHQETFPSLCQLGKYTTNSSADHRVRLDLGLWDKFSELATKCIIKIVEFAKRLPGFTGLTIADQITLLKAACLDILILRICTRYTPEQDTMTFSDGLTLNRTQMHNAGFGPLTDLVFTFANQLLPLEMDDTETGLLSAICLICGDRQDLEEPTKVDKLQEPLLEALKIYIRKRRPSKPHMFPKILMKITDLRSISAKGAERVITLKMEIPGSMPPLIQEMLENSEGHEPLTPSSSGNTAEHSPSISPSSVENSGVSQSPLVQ

[9] = target: T5, Muscarinic acetylcholine receptor M1 (Homo sapiens, UniProt P11229)
T5 sequence (P11229 whole entry): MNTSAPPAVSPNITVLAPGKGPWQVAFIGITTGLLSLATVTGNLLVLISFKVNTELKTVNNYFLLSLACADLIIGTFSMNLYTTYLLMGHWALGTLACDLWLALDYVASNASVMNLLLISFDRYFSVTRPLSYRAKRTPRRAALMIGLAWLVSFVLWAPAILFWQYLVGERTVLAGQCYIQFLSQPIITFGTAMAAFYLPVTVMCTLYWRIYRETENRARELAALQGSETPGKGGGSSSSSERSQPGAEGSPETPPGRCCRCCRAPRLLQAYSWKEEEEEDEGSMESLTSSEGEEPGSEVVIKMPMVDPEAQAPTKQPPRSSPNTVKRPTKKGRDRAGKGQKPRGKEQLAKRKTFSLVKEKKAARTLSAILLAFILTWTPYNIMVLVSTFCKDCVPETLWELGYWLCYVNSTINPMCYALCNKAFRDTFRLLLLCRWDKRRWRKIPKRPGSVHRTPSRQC
Further: assay procedure not described here.

- AC50 [1]: > 100 µM
SMILES: CN1CCCC(n2nc(Cc3ccc(Cl)cc3)c3ccccc3c2=O)CC1 (centres undefined) [AZELASTINE]

- AC50 [2]: > 100 µM
SMILES: CC(C)NCC(O)COc1ccc(COCCOC(C)C)cc1 (centres undefined) [BISOPROLOL]

- AC50 (Bile acid receptor [3]): > 10 µM
- AC50 (Bile acid receptor [4]): > 10 µM
- AC50 (Bile acid receptor [5]): > 30 µM
- AC50 [6]: > 30 µM
- AC50 [7]: 22 µM
- AC50 [8]: 24 µM
SMILES: COc1ccc2c(c1)C(=O)N(CCc1ccc(S(=O)(=O)NC(=O)NC3CCCCC3)cc1)C(=O)C2(C)C [GLIQUIDONE]

SMILES: Cc1cc2c(cc1CC(=O)c1sccc1S(=O)(=O)Nc1onc(C)c1Cl)OCO2 [SITAXENTAN]
- AC50 [9]: > 30 µM
